Test results taken from ChEMBL document CHEMBL3507680, “University of Dundee, Gates Library screen for HepG2 cell viability”.

Test: Human HepG2 cell viability assay in 384 well format
Type: toxicity, cell-based
Design: dose 125 nL, time 70.5 hour; cytotoxicity at 70.5 h: concentration not given beside the values
Settings: HepG2 cells, read-out: Inhibition

Row | Compound | cytotoxicity at 70.5 h
1 | Cc1ccc(CN2CCOC3(CCCN(c4cccc(F)c4)C3)C2)o1 (stereo unspecified) | -6.42%
2 | O=C(c1ccon1)N1CCc2ncnc(NCc3cccnc3)c2CC1 | -5.39%
3 | Cn1cc(CN2CCCC(c3nc(O)cc(-c4cccs4)n3)C2)cn1 (stereo unspecified) | -6.31%
4 | CC(=O)c1cn(CCC(=O)NCCCC(=O)O)c2ccccc12 | -12.2%
5 | O=C(Cn1cnc2cc3c(cc21)OCCCO3)NC1CCCCC1 | -1.58%
6 | CC1CN(c2ccccc2Cl)C(=O)CN1C(=O)c1c[nH]c(=O)c(Cl)c1 (stereo unspecified) | -0.811%
7 | Cc1nn(C(C)(C)C)c(=O)n1CC(=O)NC(C)(C)C | 10.6%
8 | CNC(=O)c1cccc(CCNc2ncc(Br)cn2)c1 | 7.32%
9 | O=C(NCc1cnc2n1CCN(c1ncc(F)cn1)CC2)C1CCC1 | -9.1%
10 | Cc1noc(C)c1-c1cc(CCC2CN(C(=O)C(C)C)CCO2)ncn1 (stereo unspecified) | -3.99%
11 | COc1c(Br)cccc1CCNC(=O)c1ccon1 | -10.8%
12 | O=c1oc(-c2ccc(F)cc2)nn1CCc1ccncc1 | -9.83%
13 | Cc1noc(C)c1CS(=O)(=O)CC(=O)N1c2ccccc2CC1C (stereo unspecified) | -12%
14 | CC(C)NC(=O)[C@@]12CCO[C@@H]1CCN(Cc1ccco1)C2 | 1.53%
15 | C[C@@H]1CN(C2(C(=O)N3CCNCC3)Cc3ccccc3C2)C[C@H](C)O1 | -2.17%
16 | CN1N=C(C(=O)N2CCCC(CCc3c(F)cccc3F)C2)CCC1=O (stereo unspecified) | -8.44%
17 | Cc1ccc([C@H]2CN(C(=O)C3CCC3)C[C@@H]2N)o1 | -1.49%
18 | c1coc(-c2nnc(CN3CCCC(CN4CCCCCC4)C3)o2)c1 (stereo unspecified) | -1.85%
19 | O=C(C1SCCc2sccc21)N1CCN(C2CC2)C(=O)C1 (stereo unspecified) | -5.13%
20 | O=C([C@@H]1CCO[C@@H]2CCN(CC3CC3)C[C@H]21)N1CCCCO1 | 42.7%
21 | CC(C)N(Cc1cccc(Cl)c1)Cc1nnsc1Cl | -2.95%
22 | N#Cc1cc(F)c(N2CCC(NS(=O)(=O)c3cccs3)CC2)c(F)c1 | -20%
23 | C=C(C)CN(CC)Cc1nc(C(C)(C)C)no1 | 10.8%

Row | Compound | cytotoxicity at 70.5 h
24 | C[C@@H]1CN(S(=O)(=O)N2CCOCC2)C[C@@]1(O)C1CC1 | -2.98%
25 | O=C(c1sccc1C1CC1)N1CCCN(Cc2cscn2)CC1 | -0.238%
26 | CC(C)n1cc(C(=O)NCC(CO)Cc2cccs2)cn1 (stereo unspecified) | -8.73%
27 | COc1ccc(C2(NCc3noc(C4CC4)n3)CCOCC2)cc1 | -12.1%
28 | Cc1cnc(C(C)(C)NC(=O)NCc2cccnc2OC(C)C)s1 | 2.79%
29 | CCOC(=O)N1CCC(N2Cc3ncccc3C2=O)CC1 | 3.24%
30 | Cc1ccc2c(c1)C(NCc1ncnn1C)CC2 (stereo unspecified) | -5.24%
31 | Cc1ccsc1-c1cccc(-c2ccn(CC3CCNC3)n2)c1 (stereo unspecified) | 21.5%
32 | O=C(Nc1ccc2c(c1)OCO2)N1CCN(CCn2cccn2)CC1 | -11.3%
33 | CC(C)c1nc(C2CCCN(C(=O)Cn3ccccc3=O)C2)no1 (stereo unspecified) | -1.03%
34 | Cc1ncsc1CN1CC[C@H]2OCC[C@@]2(C(=O)N2CCCO2)C1 | -2.27%
35 | CCO[C@@H]1CN(S(=O)(=O)c2cn(C)cn2)[C@@H]2CCCO[C@@H]21 | -10.2%
36 | Fc1cccc(CNc2cncc(-n3cccn3)n2)c1 | -6.71%
37 | Cc1nc(C)n(C2CCCN(C(=O)Cc3n[nH]c4ccccc34)C2)n1 (stereo unspecified) | 1.52%
38 | COc1ccc(OC)c([C@@H]2N[C@H](c3nccs3)Cc3ccsc32)c1 | -11.6%
39 | Clc1ccc(-c2ccc(C3CNCCO3)nc2)cc1 (stereo unspecified) | -0.52%
40 | Cc1ccsc1CN(Cc1nc2c(cnn2C)c(=O)[nH]1)C(C)C | 2.45%
41 | COc1ccc(-n2nc(C3CC3)nc2CCn2cnnn2)cc1 | 26.8%
42 | CCC(=O)N1CCc2[nH]cnc2C12CCN(C(=O)CCS(C)(=O)=O)CC2 | -1.4%
43 | O=C(C1CCOCC1)N1CCO[C@H]2[C@@H](OCc3ccncc3)CC[C@@H]21 | -4.02%
44 | Cc1nccn1CCN(C)c1nc(-c2ccc(Cl)cc2)nc2c1CNC2 | -3.99%
45 | COCCCC1CCCCN1Cc1cc(F)ccc1-n1cccn1 (stereo unspecified) | 9.72%
46 | NC(=O)c1cnn2c1NCC(CNC1(c3ccccc3)CCC1)C2 (stereo unspecified) | -9.04%

Row | Compound | cytotoxicity at 70.5 h
47 | CC1CN(C)c2ccccc2CN1C(=O)c1ccncc1F (stereo unspecified) | 35%
48 | CC(=O)c1cc(CN2C[C@H]3CC[C@@H]2CN(S(C)(=O)=O)C3)cs1 | 13.8%
49 | Cc1noc(C)c1CN1C[C@@H]2COC[C@H](C(=O)N3CCCO3)[C@@H]2C1 | 31.1%
50 | COc1cccc(Cn2ncnc2CNC(C)=O)c1 | -10.5%
51 | CCOC(=O)N1CCN(C(=O)c2cc(-c3ccc(C)cc3)on2)CC1 | 5.24%
52 | CNc1[nH]nc(N)c1C(=O)Nc1ccccc1 | 2.68%
53 | CN1CCCCC1(C)C(=O)N1CCC(c2ccccn2)CC1 (stereo unspecified) | 14.5%
54 | CCN1CCN(CCCNC(=O)c2cc3ccc(C)cc3nc2C)CC1 | -2.81%
55 | NC(=O)c1cccc(NC(=O)CSc2ccc3c(c2)CCC3)c1 | -1.16%
56 | CC(=O)NCC1CCN(C(=O)NCc2ccc3c(c2)OCCO3)CC1 | -16.3%
57 | C[C@@H]1CN(C(=O)NC2CC2)C[C@]12CCN(c1ccsc1)C2=O | -3.3%
58 | COc1ccccc1CN1CC[C@H]2[C@@H](C1)[C@H](c1ccsc1)CN2C(C)=O | 18.4%
59 | CNS(=O)(=O)CC(=O)N1CCC(c2ccc(F)c(F)c2)CC1 | 0.695%
60 | CN1CCC/C1=N\S(=O)(=O)c1ccc(NC(=O)c2ccc(Cl)s2)cc1 | -18.3%
61 | CCC1(CC)CC(=O)N(CC(O)c2cccc(F)c2)C1=O (stereo unspecified) | -3.42%
62 | Cn1cnnc1Sc1ccc(NC(=O)C2CC2)cc1Cl | -9.39%
63 | Cc1cc(C)cc(OCCC(=O)N2CCOCC2c2ncon2)c1 (stereo unspecified) | 5.7%
64 | Cc1nn(C)cc1C(=O)N1CCC(CSc2ccccc2)C1 (stereo unspecified) | -1.58%
65 | COc1cccc(CN2CCc3nc4ccsc4c(=O)n3CC2)c1 | 12.2%
66 | CC(C)CNC(=O)CN1CCCC(c2ccc(C(=O)O)cc2)C1 (stereo unspecified) | -6.21%
67 | OC(c1cccs1)C1CCN(c2ncccn2)CC1 (stereo unspecified) | -8.6%
68 | O[C@@H]1CCN(c2ccc3c(Cl)ccnc3c2F)C1 | -8.44%
69 | O=C(CCC(=O)N1CCOCC1)NCc1cccnc1-n1cccn1 | 1.46%

Row | Compound | cytotoxicity at 70.5 h
70 | O=C(NCc1nnc2n1CCCCC2)N1CCc2ccccc2C1 | 1.11%
71 | COc1nn(C)cc1C(=O)N1CCC(c2nnc(C3CC3)o2)CC1 | -1.01%
72 | CN1CCC(n2nc(CC3CC3)nc2-c2ccc(F)cc2Cl)CC1 | -7.5%
73 | O=C(NCc1ccccn1)NCC(c1ccco1)N1CCCCC1 (stereo unspecified) | -5.04%
74 | C=C(C)Cn1nnc(C2(NC(=O)c3ccccc3)CCCC2)n1 | -8.81%
75 | COc1ccccc1C(C)(C)NCc1ccc(C)o1 | -5.83%
76 | Cc1ccc(CC(=O)N(CC2CN(C)CCO2)c2nccs2)cn1 (stereo unspecified) | 11.5%
77 | O=C1CC(N(C(=O)c2ccc(F)c(F)c2)C2CC2)C(=O)N1 (stereo unspecified) | -9.51%
78 | Cc1cc(NCCO)nc(N2CCN(C)CC2)c1C#N | 1.33%
79 | CCS(=O)(=O)N1C[C@@H]2CN(Cc3ccco3)CCO[C@@H]2C1 | 27.9%
80 | CCOC(=O)N1CCC(Oc2ccc(C(F)(F)F)cn2)CC1 | -7.88%
81 | Cn1ccnc1CN1CC2(CCN(Cc3ccncc3)C2)C1 | -0.993%
82 | Cc1cc2c(=O)n3c(nc2s1)CCN(C(=O)c1c(C)noc1C)CC3 | -3.89%
83 | O=C(c1cc(Cl)ccc1OC1CCN(C2CCCC2)CC1)N1CCCO1 | 11.8%
84 | CCCc1nc(CN2CCN(CC(O)c3ccccc3)CC2)no1 (stereo unspecified) | -0.214%
85 | CN(C)C(=O)c1cc2ncc(C(=O)NC3CCCC3)cc2n1C | -0.145%
86 | COCCN1CCCC2(CCN(Cc3nnc(C4CC4)o3)C2)C1=O (stereo unspecified) | -6.43%
87 | COc1ccc(C(C)=O)c(OCC(=O)NC(C)c2ccc(F)cc2)c1 (stereo unspecified) | -14.9%
88 | Fc1cnc(N2CCCn3c(nnc3Cn3ccnc3)C2)nc1 | -4.74%
89 | COc1ccc(CC(=O)Nc2c(C)nc(N3CCCC3)nc2C)cc1 | -2.54%
90 | CC1N(c2cnn(C)c2)C(=O)COC12CCN(Cc1ccco1)CC2 (stereo unspecified) | -3.36%
91 | O=C(c1c2c(N3CCOCC3)ncnc2n2ccccc12)N1CCCC1 | -3.03%
92 | COc1ccc(OC)c(Sc2ncccc2C(=O)NCCSC)c1 | -8.11%

Row | Compound | cytotoxicity at 70.5 h
93 | N#Cc1ccccc1CN1CCCC(c2nccn2CC2CCC2)C1 (stereo unspecified) | -11%
94 | CC1=C[C@@H](CN2CCC(CO)CC2)[C@H](C(C)C)C[C@H]1Cc1nnc(C)o1 | -1.39%
95 | Cc1n[nH]c(C)c1CCN(C)C(=O)c1ccc(CCC(C)(C)O)cc1 | -3.14%
96 | Cc1nn(C)c(C)c1C1CCCN1Cc1cccc(C(=O)N(C)C)c1 (stereo unspecified) | 37.6%
97 | CCc1nc(CN2CCN(C(=O)C3(C#N)CCCCC3)CC2)cs1 | -0.0355%
98 | CC(C)(C)c1cc(NC(=O)C2COCCO2)n(-c2ccccn2)n1 (stereo unspecified) | -0.749%
99 | CCc1ncc2c(n1)CN(Cc1nc(C)c(C)o1)CC2 | 1.3%
100 | CCCOC(=O)N1CCCC2(CCN(Cc3cccc(C#N)c3)C2)C1 (stereo unspecified) | -6.05%
101 | O=C(O)c1cc(S(=O)(=O)N2CCOc3ccccc32)ccc1F | 0.682%
102 | O=C(CCc1ccccn1)N1CCN(C(=O)CC2CCCCC2)CC1 | -4.45%
103 | CNC(=O)[C@@H]1C[C@@H](N)CN1C1CCN(c2ccccc2F)CC1 | -7.57%
104 | O=C(c1ccccn1)N1CCC2(COc3ncccc3S(=O)(=O)N2)C1 (stereo unspecified) | -5.57%
105 | COc1ccc(C(C)Nc2ncc(C(N)=O)cc2Cl)c(OC)c1 (stereo unspecified) | -4.47%
106 | CC(C)c1n[nH]c(C(=O)Nc2ccnn2C(C)C)c1Br | 45.8%
107 | NC(=O)CN1CCC(NC2CCCCc3ccccc32)CC1 (stereo unspecified) | 5.24%
108 | CCc1nc(C2CCCN(C(=O)C(C)(C)NS(C)(=O)=O)C2)no1 (stereo unspecified) | 0.741%
109 | COc1ncccc1CN1C[C@@H]2OCCN(CCN(C)C)[C@@H]2C1 | -3.67%
110 | CCc1cc(CNC(=O)C2CCC(=O)N(Cc3ccccc3F)C2)on1 (stereo unspecified) | -9.72%
111 | CCc1nc(CN(C)Cc2nc(-c3ccccc3Cl)oc2C)no1 | -14.3%
